# Patent US12128035B2, “Activating pyruvate kinase R” (Novo Nordisk Health Care AG, priority 2021, dated 2024)
# Entries after “also recorded” stand apart in the source; their conditions may differ.
# Assays:
# [1] = system: p50 (PO2 at 50% hemoglobin saturation); assay: Phase 1 SAD/MAD: p50 (Hemox Analyzer) in healthy volunteers; format: in vivo, human; settings: for Mean p50 Value: 24 hours after first dose on day 14; for Mean Absolute Change in p50 / Mean Percentage Change in p50: 24 hours after first dose on day 14, relative to baseline; for median reduction in p50: all dose levels; for Mean Absolute Change in p50 (mmHg): 24 hours after dose, relative to baseline
# Description: In the SAD cohorts, the subjects' p50 (PO2 at 50% hemoglobin saturation) were determined 24-hours post-dose. p50 measured 24 hours after a single dose of Compound 1 were reduced at all dose levels tested (median reduction ranged from ˜3-5 mmHg). Table 17 reports the mean absolute change in p50, relative to baseline, measured 24 hours after a single dose of Compound 1 (200 mg, 400 mg, 700 mg, or 1000 mg) or placebo in healthy volunteers.
# In the MAD cohorts, the subjects' p50 (PO2 at 50% hemoglobin saturation) were determined on day 14. p50 values measured after 14 days of twice daily dosing were reduced at all dose levels tested (median reduction ranged from ˜3-5 mmHg). Table 19 reports the mean p50 value and the mean absolute change and percentage change in p50, relative to baseline, measured 24 hours after the first dose given on day 14 in healthy volunteers who received daily doses of Compound 1 (100 mg BID, 200 mg BID, 300 mg BID, or 400 mg QD) or placebo for 14 days.
# The oxygen affinity of RBCs was measured in patient blood using a Hemox Analyzer (TCS Scientific Corp.), an automatic system for the recording of blood oxygen equilibrium curves and related phenomena. The Hemox Analyzer was used according to standard methods to determine the hemoglobin-oxygen dissociation curves for whole blood samples, numerically characterized by the p50, the partial pressure of oxygen at which hemoglobin is 50% saturated. The operating principle of the Hemox-Analyzer is based on dual-wavelength spectrophotometry for the measurement of the optical properties of hemoglobin and a Clark electrode for measuring the oxygen partial pressure in millimeters of mercury. Whole blood is diluted and placed into a special plastic cuvette that is maintained at 37° C. To perform the analysis, a beam of polychromatic light is passed through the cuvette and is made monochromatic prior to reaching the photomultiplier detectors. In the case of hemoglobin, the wavelength of maximum absorbance is the measuring wavelength (560 nm), while the reference wavelength is at the isosbestic point at (570 nm). The absorbance at the isosbestic point remains unchanged during the deoxygenation process of the hemoglobin, however the measuring wavelength (560 nm) undergoes a drastic change in absorbance. This change is detected by the electronic circuitry and is plotted as the log/ratio change between the two wavelengths. The log/ratio measurement at 560 nm and 570 nm is utilized to measure the optical absorbance change during the deoxygenation of the hemoglobin. Simultaneously with the measurement of the hemoglobin absorbance, the oxygen concentration is directly measured in the sample using a Clark electrode. Under normal atmospheric conditions of 760 mm of mercury the oxygen concentration (i.e., the oxygen partial pressure) is 149 mm of mercury. This saturation point is used for full-scale calibration of the computer prior to starting the plotting of the curve. When the oxygen is being replaced by an inert gas (nitrogen) in a continuous procedure, hemoglobin becomes deoxygenated.
# [2] = target: T1, aromatase (Homo sapiens, UniProt P11511); assay: Aromatase inhibition; settings: clinical trials and non-clinical testing
# T1 construct: endogenous in cells; host or cells: H295R adreno-cortical carcinoma cells; healthy human subjects in vivo
# T1 sequence (P11511 1-503): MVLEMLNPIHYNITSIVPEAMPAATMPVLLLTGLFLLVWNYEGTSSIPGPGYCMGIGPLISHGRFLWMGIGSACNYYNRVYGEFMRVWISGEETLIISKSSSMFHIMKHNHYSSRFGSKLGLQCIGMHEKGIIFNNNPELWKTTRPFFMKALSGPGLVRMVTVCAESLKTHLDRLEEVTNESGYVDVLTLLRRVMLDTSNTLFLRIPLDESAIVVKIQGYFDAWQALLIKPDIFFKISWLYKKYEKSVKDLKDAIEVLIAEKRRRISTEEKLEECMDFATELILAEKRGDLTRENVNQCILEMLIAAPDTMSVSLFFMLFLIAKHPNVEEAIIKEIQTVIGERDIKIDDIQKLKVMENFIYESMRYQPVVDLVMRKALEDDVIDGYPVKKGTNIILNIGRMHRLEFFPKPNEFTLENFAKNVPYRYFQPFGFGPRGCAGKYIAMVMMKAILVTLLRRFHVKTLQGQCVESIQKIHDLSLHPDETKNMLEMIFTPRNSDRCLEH
# From the text: Aromatase is an enzyme encoded by the CYP19A1 gene. It is located in the endoplasmic reticulum of estrogen-producing cells and catalyzes the rate-limiting step in the conversion of androgens to estrogens in many tissues. Aromatase is a cytochrome P-450 hemoprotein-containing enzyme complex that catalyzes the rate-limiting step in the production of estrogens, i.e. the conversion of androstenedione and testosterone, via three hydroxylation steps, to estrone and estradiol. Aromatase activity is present in many tissues, such as the ovaries, adipose tissue, muscle, liver, breast tissue, and in malignant breast tumors. The main sources of circulating estrogens are the ovaries in premenopausal women and adipose tissue in post-menopausal women. Aromatase catalyzes the conversion of androgens to estrone (E1), which is further converted to the potent estrogen estradiol (E2) by the enzyme 17β-HSD type 1 in the granulosa cell.
# Aromatase is a key enzyme in the steroidogenic pathway that catalyzes the conversion of androgens, including testosterone, into estradiol. […]
# Effects on circulating levels of estradiol and testosterone in male and female healthy subjects receiving Compound 1 or placebo for a treatment period of 14 days were evaluated. […] Testosterone and estradiol levels were assessed prior to dosing (baseline), and then on days 8, 14 and 17.
compound,measurement,setting,value
"O=C([C@H](CO)c1ccccc1)N1CC2=C(C1)CN(S(=O)(=O)c1cnc3c(c1)OCCO3)C2 (single isomer, unassigned) [Compound 1]",Mean p50 Value,[1]; HV 100 mg BID,22.96 mmHg
same,Mean Absolute Change in p50,[1]; HV 100 mg BID,−3.26 mmHg
same,Mean Percentage Change in p50,[1]; HV 100 mg BID,−12.42%
same,Mean p50 Value,[1]; HV 200 mg BID,22.33 mmHg
same,Mean Absolute Change in p50,[1]; HV 200 mg BID,−5.34 mmHg
same,Mean Percentage Change in p50,[1]; HV 200 mg BID,−19.33%
same,Mean p50 Value,[1]; HV 300 mg BID,21.69 mmHg
same,Mean Absolute Change in p50,[1]; HV 300 mg BID,−4.24 mmHg
same,Mean Percentage Change in p50,[1]; HV 300 mg BID,−16.05%
same,Mean p50 Value,[1]; HV 400 mg QD,21.75 mmHg
same,Mean Absolute Change in p50,[1]; HV 400 mg QD,−4.09 mmHg
same,Mean Percentage Change in p50,[1]; HV 400 mg QD,−15.76%
same,median reduction in p50,"[1]; HV MAD cohorts, after 14 days of dosing",3-5 mmHg
same,"Mean Maximum Percent Change from Baseline, p50","[1]; HV MAD, all doses and timepoints (N = 36)",−15.9%
same,median reduction in p50,"[1]; HV SAD, 24 hours after a single dose",3-5 mmHg
same,"Mean Maximum Percent Change from Baseline, p50","[1]; HV SAD, all doses and timepoints (N = 24)",−15.6%
same,Mean Absolute Change in p50 (mmHg),[1]; HV single 200 mg,−2.91 mmHg
same,Mean Absolute Change in p50 (mmHg),[1]; HV single 400 mg,−3.41 mmHg
same,Mean Absolute Change in p50 (mmHg),[1]; HV single 700 mg,−4.85 mmHg
same,Mean Absolute Change in p50 (mmHg),[1]; HV single 1000 mg,−5.05 mmHg
same,aromatase inhibition,[2],has not shown evidence of inhibition of aromatase; also recorded: absence of aromatase inhibition
